From patent publication US7632858B2 (priority 2002, dated 2009)

Tests used:
[1] = target: T1, AR (Rattus norvegicus, UniProt P15207)
T1 sequence (P15207 1-902): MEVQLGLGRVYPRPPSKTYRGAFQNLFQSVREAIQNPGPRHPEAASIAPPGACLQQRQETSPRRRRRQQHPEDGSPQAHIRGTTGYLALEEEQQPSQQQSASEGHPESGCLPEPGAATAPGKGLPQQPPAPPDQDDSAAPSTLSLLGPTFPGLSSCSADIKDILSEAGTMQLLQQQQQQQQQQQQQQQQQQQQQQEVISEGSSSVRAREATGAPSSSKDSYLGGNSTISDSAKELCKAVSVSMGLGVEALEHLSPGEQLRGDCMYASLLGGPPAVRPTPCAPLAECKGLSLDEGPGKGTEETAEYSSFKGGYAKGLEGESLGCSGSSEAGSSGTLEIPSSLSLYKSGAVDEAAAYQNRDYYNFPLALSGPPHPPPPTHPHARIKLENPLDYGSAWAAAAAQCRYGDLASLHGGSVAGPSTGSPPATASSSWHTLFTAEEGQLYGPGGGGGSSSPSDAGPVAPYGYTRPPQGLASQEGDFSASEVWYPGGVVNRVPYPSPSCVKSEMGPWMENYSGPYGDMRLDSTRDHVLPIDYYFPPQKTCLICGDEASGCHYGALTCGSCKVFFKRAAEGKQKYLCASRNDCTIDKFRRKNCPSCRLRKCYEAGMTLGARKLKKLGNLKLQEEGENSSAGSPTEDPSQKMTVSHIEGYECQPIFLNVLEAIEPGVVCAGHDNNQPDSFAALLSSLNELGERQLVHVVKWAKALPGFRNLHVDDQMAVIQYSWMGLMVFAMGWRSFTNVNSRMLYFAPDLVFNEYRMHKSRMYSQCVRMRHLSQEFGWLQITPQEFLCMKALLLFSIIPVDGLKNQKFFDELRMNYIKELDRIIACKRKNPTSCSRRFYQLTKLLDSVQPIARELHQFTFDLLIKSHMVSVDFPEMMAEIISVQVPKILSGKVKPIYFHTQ
From the text: The activity of compounds of the present invention as AR agonists was investigated in an immature male rat model, a recognized test of anabolic effects in muscle and sustaining effects in sex organs for a given compound, as described in L. G. Hershberger et al., Proc. Soc. […] Biol. Med., 83, 175 (1953); B. L. Beyler et al, “Methods for evaluating anabolic and catabolic agents in laboratory animals”, J. Amer. Med. Women's Ass., 23, 708 (1968); H. Fukuda et al., “Investigations of the levator ani muscle as an anabolic steroid assay”, Nago Dai. […] Nem. 14, 84 (1966) the disclosures of which are herein incorporated by reference.
The basis of this assay lies in the well-defined action of androgenic agents on the maintenance and growth of muscle tissues and sexual accessory organs in animals and man. […] J. Anat. […] Ital. Biol. Sper. […] II. […] Ital. Biol. Sper. 42, 1600 (1966); A. Boris et al., Steroids 15, 61 (1970). As described above, the effects of androgens on maintenance of male sexual accessory organs, such as the prostate and seminal vesicles, is well described. Castration results in rapid involution and atrophy of the prostate and seminal vesicles. This effect can be reversed by exogenous addition of androgens. […]

[2] = target: wild type AR; conditions: read-out: Kd for [3H]-DHT; MDA 453 cells, Scatchard analysis
Description: For the whole-cell binding assay, human LNCaP cells (T877A mutant AR) or MDA 453 (wild type AR) in 96-well microtiter plates containing RPMI 1640 or DMEM supplemented with 10% charcoal stripped CA-FBS (Cocaleco Biologicals) respectively, were incubated at 37° C. to remove any endogenous ligand that might be complexed with the receptor in the cells.
For the saturation analysis, the difference between the total binding and the non-specific binding, was defined as specific binding. […] See e.g. D. Rodbard, Mathematics and statistics of ligand assays: an illustrated guide: In: J. Langon and J. J. Clapp, eds., Ligand Assay, Masson Publishing U.S.A., Inc., New York, pp. 45-99, (1981), the disclosure of which is herein incorporated by reference.
Two replicates were used for each sample.

Row | Molecule | potency relative to free T ([1]; TP versus free T) | EC50 (increase in organ weight) ([1]; immature castrated rats) | Kd [2]
1 | CCC(=O)O[C@H]1CC[C@H]2[C@@H]3CCC4=CC(=O)CC[C@]4(C)[C@H]3CC[C@]12C [TP, testosterone propionate] | 10-30 fold | ~0.03 mg | –
2 | tritiated dihydrotestosterone [[^3H]-DHT] | – | – | 0.7 nM
